From patent EP1501797B1, “3-(SUBSTITUTED AMINO)-1H-INDOLE-2-CARBOXYLIC ACID ESTER AND 3-(SUBSTITUTED AMINO)-BENZO[B]THIOPHENE-2-CARBOXYLIC ACID ESTER DERIVATIVES AS INTERLEUKIN-4 GENE EXPRESSION INHIBITORS” (Aventis Pharmaceuticals Inc., priority 2002, dated 2003) come the findings set out here.

Structures are written as SMILES.

Common to all, as to type: cell-based
One assay relates to human IL-4 promoter. The experiment in a line: IL-4 Luciferase assay in Jurkat cells (6.7-IL-4 Luc). The note with it: Jurkat cell line; concentration not given.
The test system of the next assay is human IFN-γ promoter. Description: IFN-γ Luc assay in Jurkat cells. The note with it: Jurkat cell line; concentration not given; 480 min.
For a further assay, the system named is human IL-13 promoter. Description: IL-13 Luc assay in Jurkat cells (2.1IL-13 Luc). Conditions: Jurkat cell line; concentration not given; 480 min.
A further assay has as its system Human primary Th1 cells. Description: Human primary Th1 (NYTh1) cells, proliferation (MTS assay). The note with it: data from 8 different experiments combined. The method, then:
(§1) Briefly, CD4^+CD45RA^+ T cells, isolated from donor peripheral blood mononuclear cells of healthy donors, are educated in the presence of anti-CD3/CD28 antibodies and various growth factors to obtain either a Thl-like or Th2-like phenotypes as determined by the known cytokine profiles of these two cell types.
Generation of Th1/Th2 cells: Twenty four well plates are coated with 300 µL anti-CD3 Ab (10 µg/ml, in PBS 1-2 h at 37°C or overnight at 4°C), and washed two times with PBS. CD4^+/CD45RA^+ cells at a density of 10^6/ml in RPMI, is prepared and added to RPMI medium containing 10% Hyclone serum/ glutamine and 1-2 µg/ml anti-CD28 Ab. The cells are split in two aliquots. […] The degree of polarization is determined by intracellular staining of cells with anti-IFN-γ and anti-IL-4 antibodies from Pharmingen, and using flow cytometry from Becton Dickinson (BD), according to manufacturers description. […] For compound testing, large quantities of Th1 and Th2 cells derived from a given donor (NYTh1 and NYTh2) were expanded and frozen as aliquots in liquid nitrogen. […]
Re-stimulation by allogeneic cells: Human PBMCs, to be used as alloantigens, are isolated from freshly drawn blood by Ficoll separation. […] Cells are counted and diluted to a final concentration of 2 x 10^6/ml in medium containing 10 µg/ml PHA and 200 units/ml IL-2. […]

The subject of another assay is IFN-γ. The experiment in a line: Human primary Th2 cells, anti-CD3/anti-CD28 activated, IFN-γ ELISA. Here is the method: as §1
(§2) Peripheral blood mononuclear cells (PBMC) are prepared from human blood by Ficoll-Hypacque (Pharmacia). The cells are washed two times in Hanks balanced salt solution (HBSS) and counted.
(§3) Naive T cells (CD4^+/CD45RA ) are prepared by negative selection method using following antibodies and Dynabeads: anti-CD8, anti-HLA-DR, (where HLA means human leucocyte antigen) anti-CD14, anti-CD16, anti-CD19, anti-CD45RO antibodies (all from R&D Systems, 1-2 µg/ml) are added to the cells, and the cells are kept on ice for 30 min. The cells are washed two times in HBSS, and goat anti- mouse Ig-beads, (bead:target ratio, 5:1) are added. The cells and beads are slowly rotated at 4°C for 20 min. (following the protocol supplied from Dynal). The supernatant is removed and fresh goat anti-mouse Ig-beads are added to the supernatant, which is slowly rotated at 4°C for 20 min. The cells are counted and phenotypically characterized by flow cytometric analysis.
(§4) CD4^+/CD45RA^+ cells at a density of 10^6/ml in RPMI, is prepared and added to RPMI medium containing 10% Hyclone serum/ glutamine and 1-2 µg/ml anti-CD28 Ab. The cells are split in two aliquots. For Th1 cells: anti-IL-4 Ab (1-2 µg/ml), IFN-γ (1 µg/ml, or 5000 units/ml) are added to the wells. For Th2 cells: IL-4 (100-200 ng/ml), anti-IFN-γ neutralizing Ab (1-2 µg/ml), anti-IL-12 neutralizing Ab (1-2 µg/ml) are added into the wells. […] The cells are transferred to fresh wells and grown in 200 units/ml IL-2 for 2 weeks by feeding them every other day with IL-2 containing medium and splitting the cultures 1:2 or 1:3 as needed. The degree of polarization is determined by intracellular staining of cells with anti-IFN-γ and anti-IL-4 antibodies from Pharmingen, and using flow cytometry from Becton Dickinson (BD), according to manufacturers description. The cells are stimulated with PHA and alloantigens at day 14 and 28 as described below. Eight days after the second allostimulation the cells can be used for compound screening or frozen for future use. For compound testing, large quantities of Th1 and Th2 cells derived from a given donor (NYTh1 and NYTh2) were expanded and frozen as aliquots in liquid nitrogen. The cells are thawed and cultured as and when needed. The thawed cells are stimulated with alloantigen/PHA combination. The cells are used for compound screening after 8-10 days in culture.
(§5) Re-stimulation by allogeneic cells: Human PBMCs, to be used as alloantigens, are isolated from freshly drawn blood by Ficoll separation. […] Cells are counted and diluted to a final concentration of 2 x 10^6/ml in medium containing 10 µg/ml PHA and 200 units/ml IL-2.
(§6) Ninetysix well Falcon tissue culture plates (Fisher Scientific) are coated with 100 microliters per well of 10 µg/ml anti-CD3 (PharMingen) antibody in phosphate buffered saline (PBS) and stored at 4°C one day before the experiment.
(§7) On the day of assay, anti-CD3 antibody coated plates are washed with PBS once to remove all soluble anti-CD3 antibody. […] All compounds and controls are assayed in triplicates.

The next assay deals with IL-5. The experiment in a line: Human primary Th2 cells, anti-CD3/anti-CD28 activated, IL-5 ELISA. Here is the method:
as §1, §2, §3, §4, §5, §6, §7

Where [1] appears, read: Human primary Th2 cells, combined data from 10 different experiments.

Protocol for human IFN-γ promoter: Jurkats containing 2.3IFN-γ Luc (monoclonal lines) were plated at a density of 50,000 cells in 120 µl per well, and grown for 16 hours. The cultures were then stimulated with 10 ng/ml of phorbol 12-myristate 13-acetate (PMA) and 1.0 µm calcium ionophore A23187 in 10 µl of media for 8 hours. The stimulation process was terminated by the addition of 50 µls of 1x lysis buffer (25 mM Tris Phosphate, pH 7.8, 2.0 mM DTT, 2 .0 mM EDTA, 100 ml/L glycerol, 1.0% Triton X-100 (v/v)). The cells were incubated in the presence of lysis buffer for 5 minutes, pipetted up and down, 5x, to ensure complete lysis. A 100 µl aliquot of the cell lysate was transferred to white luminometer plates (Dynatech) and assayed for luciferase activity with a Dynatech luminometer.
In order to use this assay to screen for agonists or antagonists from a chemical library, desired doses of a compound were added directly along with PMA/ A23187 mix.
Protocol for human IL-13 promoter: Jurkats containing 2.1IL-13 Luc (monoclonal lines) were plated at a density of 50,000 cells in 120 µL per well, and grown for 16 hours. The cultures were then stimulated with 10 ng/ml of Phorbol 12-myristate 13-acetate (PMA) and 1.0 µM calcium ionophore A23187 in 10 µL of media for 8 hours. The stimulation process was terminated by the addition of 50 µL s of 1x lysis buffer (25 mM Tris Phosphate, pH 7.8, 2.0 mM dithiothritol (DTT), 2 .0 mM ethylenediamine tetra-acetic acid (EDTA), 100 ml/L glycerol, 1.0% Triton X-100 (v/v)). The cells were incubated in the presence of lysis buffer for 5 minutes, pipetted up and down, 5x, to ensure complete lysis. A 100 µL aliquot of the cell lysate was transferred to white luminometer plates (Dynatech) and assayed for luciferase activity with a Dynatech luminometer.
Protocol for human IL-4 promoter: An IL-4 luciferase assay may be used to screen for compounds which modulate levels of IL-4 transcription.
Monoclonal lines, 1F7, F8 and C5 are derived from the stable transfected polyclonal population by the limiting dilution method and used for the assay. The monoclonal cell lines are cultured in the above described medium in the presence of 400 µg/ml G418.
The cells are harvested, resuspended in fresh media and plated at a density of 50,000 cells/well in 120 µL volume, in a 96 well plate and grown for 16 hours. Test compounds are added to the culture (in DMSO final concentration of 0.5 %) in replicates of 3 or 4 in a 15 µL volume. Typically, dose response curves are generated using three (10, 1 and 0.1 µM) or five concentrations (10, 1, 0.1, 0.01 and 0.001 µM). […] The stimulation process is terminated by the addition of 50 µL s of 1 x lysis buffer (25 mM Tris Phosphate, pH 7.8, 2.0 mM DTT, 2.0 mM EDTA, 100 ml/L glycerol, 1.0% Triton X-100 (v/v)). […]
All experimental plates included non-induced and induced control wells. […] The results generated from the assay are expressed as percent activity. […] The primary assay measured the effects of the ability of a compound to modulate the level of a reporter gene, luciferase, linked to a human IL-4 promoter transfected into a human Jurkat cell line.

With `O=C(O)c1[nH]c2ccccc2c1Nc1ccncc1` [Example 28, 3-(4-Pyridinylamino)-1H-indole-2-carboxylic acid], the “6.7-IL-4 Luc (% of control)” value in the assay on human IL-4 promoter is recorded as 62 ± 29 % of control. Besides, in the assay with human IFN-γ promoter, the “2.7-IFN-γ -Luc (% of control)” value was 100 ± 15 % of control. The “2.1-IL-13 - Luc (% of control)” value in the assay with human IL-13 promoter is given as 50 ± 12 % of control. The IC50 in the assay with Human primary Th1 cells is over 10 µM; in the assay on IFN-γ (setting [1]) it was over 10 µM; in the assay with IL-5 (setting [1]), about 10 µM. The activity at 0.01 µM amounted to 96.9% with IFN-γ (Homo sapiens, 0.01 µM, 48 hr, read-out: IFN-γ (% control) mean) and 102% with IL-5 (Homo sapiens, 0.01 µM, 48 hr, read-out: IL-5 (% control) mean). In addition, the activity at 0.03 µM in the assay on IFN-γ (Homo sapiens, 0.03 µM, 48 hr, read-out: IFN-γ (% control) mean) stood at 91.6%; in the assay on IL-5 (Homo sapiens, 0.03 µM, 48 hr, read-out: IL-5 (% control) mean) it was 85.2%. The activity at 0.1 µM in the assay on IFN-γ (Homo sapiens, 0.1 µM, 48 hr, read-out: IFN-γ (% control) mean) came out at 91.8%; in the assay with IL-5 (Homo sapiens, 0.1 µM, 48 hr, read-out: IL-5 (% control) mean), 78.6%. Also, the activity at 0.3 µM came out at 92.1% in the assay on IFN-γ (Homo sapiens, 0.3 µM, 48 hr, read-out: IFN-γ (% control) mean) and 70.8% in the assay with IL-5 (Homo sapiens, 0.3 µM, 48 hr, read-out: IL-5 (% control) mean). For the same compound, the activity at 1 µM in the assay with IFN-γ (Homo sapiens, 1 µM, 48 hr, read-out: IFN-γ (% control) mean) was 89.2%; in the assay on IL-5 (Homo sapiens, 1 µM, 48 hr, read-out: IL-5 (% control) mean) it was 70.7%. Also, the activity at 3 µM in the assay on IFN-γ (Homo sapiens, 3 µM, 48 hr, read-out: IFN-γ (% control) mean) was 83.5%; with IL-5 (Homo sapiens, 3 µM, 48 hr, read-out: IL-5 (% control) mean) it was 70.4%. In addition, the activity at 10 µM came out at 75% with IFN-γ (Homo sapiens, 10 µM, 48 hr, read-out: IFN-γ (% control) mean) and 53.9% in the assay on IL-5 (Homo sapiens, 10 µM, 48 hr, read-out: IL-5 (% control) mean).
